# Data published in BindingDB's records for patent US20240002391 (Biosplice Therapeutics, 2024).
# Molecular target: Dual specificity tyrosine-phosphorylation-regulated kinase 1A (Homo sapiens, UniProt Q13627)
# Test: DYRK1A kinase assay
# Protocol: The mixture was allowed to incubate with the representative compounds for one hour at room temperature. All reactions were performed in duplicate. Unphosphorylated ( 0% Control ) and phosphorylated ( 100% control ) forms of Ser/Thr 18 served as control reactions. Additionally, an 11-point dose-response curve of Staurosporine (luM top) was run to serve as a positive compound control. After incubation, Development Reagent A was diluted in Development Buffer then added to the reaction and allowed to further incubate for one hour at room temperature.
row,Structure (SMILES),EC50 [nM]
1,"COc1nc(N[C@H]2C[C@@](C)(NC(=O)C3(C#N)CC3)C2)nn2ccc(-c3ccc4nnn(C)c4c3)c12 [US20240002391, Compound 625]",0.9
2,"COc1nc(N[C@H]2C[C@@](C)(N)C2)nn2ccc(-c3ccc4ncnn4c3)c12 [US20240002391, Compound 189]",18.8
3,"COc1nc(N[C@H]2C[C@](C)(O)C2)nn2ccc(-c3ccc4nccn4c3)c12 [US20240002391, Compound 44]",3.2
4,"CCn1nnc2ccc(-c3ccn4nc(N[C@H]5CC[C@](C)(O)CC5)nc(OC)c34)cc21 [US20240002391, Compound 639]",1.3
5,"Cn1nnc2ccc(-c3ccn4nc(N[C@H]5CC[C@](C)(O)CC5)nc(OC5COC5)c34)cc21 [US20240002391, Compound 631]",24.5
6,"COc1nc(N[C@H]2C[C@@](C)(O)C2)nn2ccc(-c3ccc4nccn4c3)c12 [US20240002391, Compound 43]",1.3
7,"COc1nc(N[C@H]2CC[C@@](C)(O)CC2)nn2ccc(-c3ccc4nnn(CCF)c4c3)c12 [US20240002391, Compound 658]",4.5
8,"COc1nc(N[C@H]2C[C@]3(CCN3CC(F)F)C2)nn2ccc(-c3ccc4nccnc4c3)c12 [US20240002391, Compound 1099]",0.7
9,"COc1nc(N[C@H]2CC[C@](C)(O)CC2)nn2ccc(-c3ccc4nnn(CCF)c4c3)c12 [US20240002391, Compound 659]",0.9
10,"COc1nc(N[C@H]2C[C@@](C)(NC(C)=O)C2)nn2ccc(-c3ccc4nnn(CCF)c4c3)c12 [US20240002391, Compound 653]",1.3
11,"COc1nc(N[C@H]2CC[C@](C)(O)CC2)nn2cc(F)c(-c3ccc4nnn(C)c4c3)c12 [US20240002391, Compound 629]",2.4
